Test results as given in patent US6379714B1, “Pharmaceutical grade botanical drugs” (priority 1995, dated 2002).

Assays:
[1] = tested on: C3H Mammary adenocarcinoma 16/C; assay: Growth of subcutaneous transplants of C3H mammary adenocarcinoma 16/C in mice; format: in vivo, B6C3F1 hybrid female mice; settings: 5-Fluorouracil 98 mg/kg, i.p., qd (1, 7, 14, 21)
Source text: Anticancer activities of T4GEN and n-T4GEN were studied in animals bearing subcutaneous transplants of C3H Mammary adenocarcinoma 16/C. This tumor is maintained as a lung passed tumor in C3H female mice. In this example, tumors (1×10^6 cells) were transplanted (S.C.) in 18-20 g B6C3F1 hybrid female mice. On the following day, the tumor bearing animals were randomized and separated into different treatment groups (10 mice per group). There were 15 animals in the control group who received only physiological saline during the treatment periods. […] Animals were weighed on days 5, 9 and 14 to assess toxic effects. Tumors were measured on days 21, 28 post transplants and the results are represented as tumor weights using formula [formula]
(I=length of tumor, w=width of tumor expressed in mm).

[2] = Body weight change of tumor bearing mice (toxic effects); format: in vivo, B6C3F1 hybrid female mice; settings: 5-Fluorouracil 98 mg/kg, i.p., qd (1, 7, 14, 21)
Source text: Anticancer activities of T4GEN and n-T4GEN were studied in animals bearing subcutaneous transplants of C3H Mammary adenocarcinoma 16/C. This tumor is maintained as a lung passed tumor in C3H female mice. In this example, tumors (1×10^6 cells) were transplanted (S.C.) in 18-20 g B6C3F1 hybrid female mice. On the following day, the tumor bearing animals were randomized and separated into different treatment groups (10 mice per group). There were 15 animals in the control group who received only physiological saline during the treatment periods. The treatments (i.p.) were started 48 hours after the transplants and given for a duration of 14 days (daily single injections). Animals were weighed on days 5, 9 and 14 to assess toxic effects. Tumors were measured on days 21, 28 post transplants and the results are represented as tumor weights using formula [formula]

## O=c1[nH]cc(F)c(=O)[nH]1 [5-Fluorouracil]
[1]
  Tumor Free Animals (day 93): 0/6
  Tumor Wts (day 21): 0.00
[1]; day 21
  Tumor Weight Inhibition %: 100%
[2]
  ΔWts (g) (day 14): +1.77 g
